Assay results: patent US6670373B1, “Compounds and method for inhibiting MRP1” (Eli Lilly and Company, priority 1999, dated 2003)

How the values were obtained:
MRP1 = target: T1, MRP1 (Homo sapiens, UniProt P33527); experiment: Reversal of MRP1-mediated doxorubicin resistance in HL60/Adr cells (alamarBlue cell growth); format: cell-based; settings: oncolytic alone at the tested concentration
T1 construct: HL60/Adr and HL60/Vinc are continuous cell lines, which were selected for doxorubicin and vincristine resistance respectively; endogenous in cells; host or cells: HL60/Adr (doxorubicin-selected variant of human HL60)
T1 sequence (P33527 whole entry): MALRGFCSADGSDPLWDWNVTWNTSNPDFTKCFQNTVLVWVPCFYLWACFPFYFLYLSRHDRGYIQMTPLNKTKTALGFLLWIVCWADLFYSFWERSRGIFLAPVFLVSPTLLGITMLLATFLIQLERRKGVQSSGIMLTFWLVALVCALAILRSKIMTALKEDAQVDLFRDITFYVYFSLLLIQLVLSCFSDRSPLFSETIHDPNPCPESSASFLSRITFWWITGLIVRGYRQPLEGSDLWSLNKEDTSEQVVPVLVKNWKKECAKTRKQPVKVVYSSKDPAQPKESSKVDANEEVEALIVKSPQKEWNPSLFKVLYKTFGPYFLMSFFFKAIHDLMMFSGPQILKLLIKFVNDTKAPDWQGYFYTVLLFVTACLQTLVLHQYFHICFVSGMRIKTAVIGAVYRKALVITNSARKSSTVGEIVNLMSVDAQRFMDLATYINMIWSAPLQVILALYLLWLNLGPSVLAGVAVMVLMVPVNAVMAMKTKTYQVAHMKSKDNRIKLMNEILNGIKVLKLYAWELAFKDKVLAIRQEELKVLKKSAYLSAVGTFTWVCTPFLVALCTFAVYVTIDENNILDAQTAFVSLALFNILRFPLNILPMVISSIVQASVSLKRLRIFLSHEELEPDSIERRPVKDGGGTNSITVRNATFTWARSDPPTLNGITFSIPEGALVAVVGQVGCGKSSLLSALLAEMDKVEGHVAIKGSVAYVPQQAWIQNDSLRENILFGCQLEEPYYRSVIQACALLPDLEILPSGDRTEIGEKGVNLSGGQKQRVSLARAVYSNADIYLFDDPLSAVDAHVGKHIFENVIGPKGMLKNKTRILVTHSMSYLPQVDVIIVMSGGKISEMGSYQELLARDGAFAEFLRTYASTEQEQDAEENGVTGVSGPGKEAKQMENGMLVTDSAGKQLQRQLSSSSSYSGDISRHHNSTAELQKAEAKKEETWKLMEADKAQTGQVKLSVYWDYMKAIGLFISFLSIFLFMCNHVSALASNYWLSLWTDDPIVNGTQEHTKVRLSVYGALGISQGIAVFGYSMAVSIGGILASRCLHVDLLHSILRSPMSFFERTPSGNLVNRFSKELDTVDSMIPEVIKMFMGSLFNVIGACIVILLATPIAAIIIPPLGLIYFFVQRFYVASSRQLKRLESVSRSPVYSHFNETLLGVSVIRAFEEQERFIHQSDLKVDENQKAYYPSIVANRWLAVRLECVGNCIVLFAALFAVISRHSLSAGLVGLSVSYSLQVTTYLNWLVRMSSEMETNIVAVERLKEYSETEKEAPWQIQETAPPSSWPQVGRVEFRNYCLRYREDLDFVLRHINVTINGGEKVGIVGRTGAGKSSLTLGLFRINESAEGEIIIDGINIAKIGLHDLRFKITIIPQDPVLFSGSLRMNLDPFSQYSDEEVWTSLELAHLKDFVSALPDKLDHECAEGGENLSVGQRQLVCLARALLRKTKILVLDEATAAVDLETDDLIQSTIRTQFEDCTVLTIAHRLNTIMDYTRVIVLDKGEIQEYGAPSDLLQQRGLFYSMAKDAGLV
Description: (§1) The biological activity of the compounds of the present invention was evaluated employing an initial screening assay which rapidly and accurately measured the activity of the tested compound in inhibiting MRP1 or MDR1. Assays useful for evaluating this reversing capability are well known in the art. See, e.g., T. McGrath, et al., Biochemical Pharmacology, 38:3611, 1989; D. Marquardt and M. S. Center, Cancer Research, 52:3157, 1992; D. Marquardt, et al., Cancer Research, 50:1426, 1990; and Cole, et. al., Cancer Research, 54: 5902-5910, 1994.
(§2) Assay for Reversal of MRP1-Mediated Doxorubicin Resistance and MDR1-Mediated Vincristine Resistance: HL60/Adr and HL60/Vinc are continuous cell lines, which were selected for doxorubicin and vincristine resistance respectively by culturing HL60, a human acute myeloblastic leukemia cell line, in increasing concentrations of doxorubicin or vincristine until a highly resistant variant was attained.
(§3) HL60/Adr and HL60/Vinc cells were grown in RPMI 1640 (Gibco) containing 10% fetal bovine serum (FBS) and 50 μg/ml GENTAMICIN™ (Sigma). Cells were harvested; washed twice with assay medium (same as culture media); counted; and diluted to 1×10^5 cells/ml in assay medium. One hundred microliters of cells were aliquoted into wells of a 96 well tissue culture plate. […]

MDR1 = target: T2, MDR1 (Homo sapiens, UniProt P08183); experiment: Reversal of MDR1-mediated vincristine resistance in HL60/Vinc cells (alamarBlue cell growth); format: cell-based; settings: oncolytic alone at the tested concentration
T2 construct: HL60/Adr and HL60/Vinc are continuous cell lines, which were selected for doxorubicin and vincristine resistance respectively; endogenous in cells; host or cells: HL60/Vinc (vincristine-selected variant of human HL60)
T2 sequence (P08183 whole entry): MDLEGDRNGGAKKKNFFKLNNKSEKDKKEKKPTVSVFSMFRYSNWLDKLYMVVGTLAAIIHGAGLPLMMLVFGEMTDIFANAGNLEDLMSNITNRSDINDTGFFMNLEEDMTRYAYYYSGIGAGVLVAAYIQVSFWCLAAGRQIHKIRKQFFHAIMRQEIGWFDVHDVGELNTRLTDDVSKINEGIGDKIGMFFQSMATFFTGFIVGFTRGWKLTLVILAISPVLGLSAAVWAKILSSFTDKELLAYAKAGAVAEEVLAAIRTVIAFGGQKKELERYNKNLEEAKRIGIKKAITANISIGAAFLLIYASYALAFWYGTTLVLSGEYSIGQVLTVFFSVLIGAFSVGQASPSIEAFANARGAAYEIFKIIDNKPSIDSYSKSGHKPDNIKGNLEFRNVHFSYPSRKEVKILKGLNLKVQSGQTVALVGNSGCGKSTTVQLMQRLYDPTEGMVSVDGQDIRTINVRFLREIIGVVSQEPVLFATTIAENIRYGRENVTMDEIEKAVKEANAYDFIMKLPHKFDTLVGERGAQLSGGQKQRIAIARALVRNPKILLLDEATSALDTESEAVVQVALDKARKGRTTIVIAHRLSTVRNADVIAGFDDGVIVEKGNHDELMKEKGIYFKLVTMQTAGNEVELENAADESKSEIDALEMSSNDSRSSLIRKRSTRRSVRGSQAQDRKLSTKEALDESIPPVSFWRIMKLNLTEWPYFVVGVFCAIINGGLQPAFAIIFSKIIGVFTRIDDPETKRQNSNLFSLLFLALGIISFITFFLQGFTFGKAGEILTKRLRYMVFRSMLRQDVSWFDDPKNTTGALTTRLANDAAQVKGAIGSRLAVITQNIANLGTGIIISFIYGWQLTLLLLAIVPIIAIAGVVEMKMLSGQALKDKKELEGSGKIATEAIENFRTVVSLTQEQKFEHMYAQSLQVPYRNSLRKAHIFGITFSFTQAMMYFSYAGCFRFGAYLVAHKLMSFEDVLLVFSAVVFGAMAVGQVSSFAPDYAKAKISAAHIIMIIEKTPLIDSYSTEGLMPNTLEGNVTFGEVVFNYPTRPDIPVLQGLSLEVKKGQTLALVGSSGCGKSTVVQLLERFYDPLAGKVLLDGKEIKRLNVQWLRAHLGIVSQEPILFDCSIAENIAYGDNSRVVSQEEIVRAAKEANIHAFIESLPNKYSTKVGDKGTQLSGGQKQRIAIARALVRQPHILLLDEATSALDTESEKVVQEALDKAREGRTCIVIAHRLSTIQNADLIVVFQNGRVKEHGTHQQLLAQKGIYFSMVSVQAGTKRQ
Description: as §1, §2, §3

inhibition of cell growth by the oncolytic alone (MRP1): minimally inhibits
Structure (SMILES): COc1cccc2c1C(=O)c1c(O)c3c(c(O)c1C2=O)C[C@@](O)(C(=O)CO)C[C@@H]3O[C@H]1C[C@H](N)[C@H](O)[C@H](C)O1 [doxorubicin]
inhibition of cell growth by the oncolytic alone (MDR1): minimally inhibits
